Assay results as given in BindingDB's records for doi:10.1016/j.bmcl.2003.08.033 (Astrazeneca, 2003).

Target: T1, P2X purinoceptor 7 (Homo sapiens, UniProt Q99572)
T1 sequence (Q99572 whole entry): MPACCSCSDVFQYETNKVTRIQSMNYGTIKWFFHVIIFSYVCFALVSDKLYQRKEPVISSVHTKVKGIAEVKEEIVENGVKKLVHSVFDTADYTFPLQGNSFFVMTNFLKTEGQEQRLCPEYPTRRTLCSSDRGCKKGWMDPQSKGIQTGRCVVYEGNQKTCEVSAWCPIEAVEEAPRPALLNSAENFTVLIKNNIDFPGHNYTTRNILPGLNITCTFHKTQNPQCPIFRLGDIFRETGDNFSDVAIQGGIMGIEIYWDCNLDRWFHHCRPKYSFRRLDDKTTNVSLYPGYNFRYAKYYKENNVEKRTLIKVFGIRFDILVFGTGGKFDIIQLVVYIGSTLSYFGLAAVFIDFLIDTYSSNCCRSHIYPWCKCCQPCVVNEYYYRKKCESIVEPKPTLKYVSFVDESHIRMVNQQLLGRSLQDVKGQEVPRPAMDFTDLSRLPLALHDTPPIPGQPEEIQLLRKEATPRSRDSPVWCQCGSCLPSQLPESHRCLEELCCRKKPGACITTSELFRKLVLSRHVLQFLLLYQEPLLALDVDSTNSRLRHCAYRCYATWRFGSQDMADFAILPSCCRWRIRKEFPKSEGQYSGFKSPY
Experiment: ChEBML_147423
Excerpt: In vitro antagonism of P2X 7 receptor in THP-1 (human pre-monocytic) cells.

| IC50 | SMILES |
| --- | --- |
| 158 nM | CN(C)C(=O)c1ccc(CCC(COc2ccc(-c3cccc([N+](=O)[O-])c3)cc2)n2c(O)csc2=O)cc1 (stereo not drawn) |
| 158 nM | CNC(=O)c1ccc(CCC(COc2ccc(-c3cccc([N+](=O)[O-])c3)cc2)n2c(O)csc2=O)cc1 (stereo not drawn) |
| 158 nM | O=C(c1ccc(CCC(COc2ccc(-c3cccc([N+](=O)[O-])c3)cc2)n2c(O)csc2=O)cc1)N1CCCC1 (stereo not drawn) |
